Experimental data as given in ChEMBL document CHEMBL5257024, “Synthesis of α,β-Unsaturated Carbonyl-Based Compounds, Oxime and Oxime Ether Analogs as Potential Anticancer Agents for Overcoming Cancer Multidrug Resistance by Modulation of Efflux Pumps in Tumor Cells” (J Med Chem, 2016).
Active and inactive are the calls of the source. The calls are words filed in the database; no cut-off is given here.

Legend:
[1] = target: Tubulin (Sus scrofa) (UniProt P02554+P02550); test: Inhibition of pig brain tubulin polymerization at 25 uM measured after 15 mins by fluorescence based turbidimetry; type: tissue-based
[2] = target: Epidermal growth factor receptor (Homo sapiens, UniProt P00533); test: Inhibition of recombinant 6His-tagged EGFR cytoplasmic domain (645 to 1186 residues) (unknown origin) autophosphorylation expressed in baculovirus infected Sf9 insect cells preincubated for 10 mins followed by ATP and MgCl2 addition measured after 60 mins by DELFIA/time-resolved fluorometric analysis
[3] = species: Sus scrofa; test: Induction of pig brain microtubule stabilization at 25 uM measured after 15 mins by fluorescence based turbidimetry; type: tissue-based
[4] = system: PC-3; test: cells; conditions: Homo sapiens, PC-3, 48 h
Description: Antiproliferative activity against human PC-3 cells assessed as inhibition of cell growth incubated for 48 hrs by propidium iodide staining based fluorometer assay

[5] = system: MIA PaCa-2; test: Antiproliferative activity against human MIA PaCa-2 cells assessed as inhibition of cell growth incubated for 48 hrs by propidium iodide staining based fluorometer assay; type: functional; conditions: MIA PaCa-2, 48 h
[6] = system: NCI-H460; test: cells; conditions: Homo sapiens, NCI-H460, 48 h
Description: Antiproliferative activity against human NCI-H460 cells assessed as inhibition of cell growth incubated for 48 hrs by propidium iodide staining based fluorometer assay

[7] = system: MCF7; test: Antiproliferative activity against human MCF7 cells assessed as inhibition of cell growth incubated for 48 hrs by propidium iodide staining based fluorometer assay; type: functional; conditions: MCF7, 48 h
[8] = Inhibition of full length mouse GST-tagged BRAF V600E mutant preincubated for 60 mins followed by addition of N-terminal His-tagged full length human MEK1 incubated for 25 mins in presence of ATP by ELISA assay
[9] = system: L5178Y; test: Reversal of multidrug resistance in mouse L5178Y cells transfected with human MDR1 assessed as reversal of rhodamine 123 accumulation at 5 ug/ml incubated for 30 mins by flow cytometry; type: functional, cell-based; conditions: dose 5.0 µg/ml
[10] = system: A549; test: Antiproliferative activity against human A549 cells assessed as inhibition of cell growth incubated for 48 hrs by propidium iodide staining based fluorometer assay; type: functional; conditions: A549, 48 h
[11] = system: PANC-1; test: cells; conditions: Homo sapiens, PANC-1, 48 h
Description: Antiproliferative activity against human PANC-1 cells assessed as inhibition of cell growth incubated for 48 hrs by propidium iodide staining based fluorometer assay

[12] = Cytotoxicity against human MCF-10A cells assessed as cell viability incubated for 96 hrs by MTT assay; type: toxicity, cell-based; set-up: concentration or dose not given beside the values; conditions: read-out: Activity
[13] = system: L5178Y; test: Reversal of multidrug resistance in mouse L5178Y cells transfected with human MDR1 assessed as reversal of rhodamine 123 accumulation at 50 ug/ml incubated for 30 mins by flow cytometry; type: functional, cell-based; conditions: dose 50.0 µg/ml
[14] = system: HT-29; test: cells; conditions: Homo sapiens, HT-29, 48 h
Description: Antiproliferative activity against human HT-29 cells assessed as inhibition of cell growth incubated for 48 hrs by propidium iodide staining based fluorometer assay

[15] = Toxicity in mouse L5178Y cells transfected with human MDR1 at 50 ug/ml after short period of incubation by tryptan blue assay; type: cell-based; conditions: dose 50 µg/ml

Tubulin (Sus scrofa), sequence (P02550 whole entry, looked up, the tested form may be a part): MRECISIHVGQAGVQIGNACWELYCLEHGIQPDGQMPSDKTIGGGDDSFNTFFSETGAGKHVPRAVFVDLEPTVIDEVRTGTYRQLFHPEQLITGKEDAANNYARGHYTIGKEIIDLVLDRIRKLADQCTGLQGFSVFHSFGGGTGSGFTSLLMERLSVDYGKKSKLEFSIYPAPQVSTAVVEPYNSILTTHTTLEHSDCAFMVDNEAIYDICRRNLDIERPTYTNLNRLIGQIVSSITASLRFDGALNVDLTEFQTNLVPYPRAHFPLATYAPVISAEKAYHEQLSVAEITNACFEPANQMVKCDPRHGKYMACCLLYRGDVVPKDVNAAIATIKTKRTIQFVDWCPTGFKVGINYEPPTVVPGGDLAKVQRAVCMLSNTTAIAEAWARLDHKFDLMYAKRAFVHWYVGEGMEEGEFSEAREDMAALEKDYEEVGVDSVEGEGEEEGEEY
Tubulin (Sus scrofa), sequence (P02554 whole entry, looked up, the tested form may be a part): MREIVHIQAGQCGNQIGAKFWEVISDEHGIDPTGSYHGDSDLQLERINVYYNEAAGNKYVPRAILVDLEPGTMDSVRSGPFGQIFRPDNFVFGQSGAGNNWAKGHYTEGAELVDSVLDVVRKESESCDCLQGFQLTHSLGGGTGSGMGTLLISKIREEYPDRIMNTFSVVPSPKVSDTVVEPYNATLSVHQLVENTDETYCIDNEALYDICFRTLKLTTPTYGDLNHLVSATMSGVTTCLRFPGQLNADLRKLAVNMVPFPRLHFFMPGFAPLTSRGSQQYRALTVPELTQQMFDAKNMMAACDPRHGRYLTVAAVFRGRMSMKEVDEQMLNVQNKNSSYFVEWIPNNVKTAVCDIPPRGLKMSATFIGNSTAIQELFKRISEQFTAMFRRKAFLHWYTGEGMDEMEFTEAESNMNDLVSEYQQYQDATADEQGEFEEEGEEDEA
Epidermal growth factor receptor, sequence (P00533 whole entry, the tested form may be a part): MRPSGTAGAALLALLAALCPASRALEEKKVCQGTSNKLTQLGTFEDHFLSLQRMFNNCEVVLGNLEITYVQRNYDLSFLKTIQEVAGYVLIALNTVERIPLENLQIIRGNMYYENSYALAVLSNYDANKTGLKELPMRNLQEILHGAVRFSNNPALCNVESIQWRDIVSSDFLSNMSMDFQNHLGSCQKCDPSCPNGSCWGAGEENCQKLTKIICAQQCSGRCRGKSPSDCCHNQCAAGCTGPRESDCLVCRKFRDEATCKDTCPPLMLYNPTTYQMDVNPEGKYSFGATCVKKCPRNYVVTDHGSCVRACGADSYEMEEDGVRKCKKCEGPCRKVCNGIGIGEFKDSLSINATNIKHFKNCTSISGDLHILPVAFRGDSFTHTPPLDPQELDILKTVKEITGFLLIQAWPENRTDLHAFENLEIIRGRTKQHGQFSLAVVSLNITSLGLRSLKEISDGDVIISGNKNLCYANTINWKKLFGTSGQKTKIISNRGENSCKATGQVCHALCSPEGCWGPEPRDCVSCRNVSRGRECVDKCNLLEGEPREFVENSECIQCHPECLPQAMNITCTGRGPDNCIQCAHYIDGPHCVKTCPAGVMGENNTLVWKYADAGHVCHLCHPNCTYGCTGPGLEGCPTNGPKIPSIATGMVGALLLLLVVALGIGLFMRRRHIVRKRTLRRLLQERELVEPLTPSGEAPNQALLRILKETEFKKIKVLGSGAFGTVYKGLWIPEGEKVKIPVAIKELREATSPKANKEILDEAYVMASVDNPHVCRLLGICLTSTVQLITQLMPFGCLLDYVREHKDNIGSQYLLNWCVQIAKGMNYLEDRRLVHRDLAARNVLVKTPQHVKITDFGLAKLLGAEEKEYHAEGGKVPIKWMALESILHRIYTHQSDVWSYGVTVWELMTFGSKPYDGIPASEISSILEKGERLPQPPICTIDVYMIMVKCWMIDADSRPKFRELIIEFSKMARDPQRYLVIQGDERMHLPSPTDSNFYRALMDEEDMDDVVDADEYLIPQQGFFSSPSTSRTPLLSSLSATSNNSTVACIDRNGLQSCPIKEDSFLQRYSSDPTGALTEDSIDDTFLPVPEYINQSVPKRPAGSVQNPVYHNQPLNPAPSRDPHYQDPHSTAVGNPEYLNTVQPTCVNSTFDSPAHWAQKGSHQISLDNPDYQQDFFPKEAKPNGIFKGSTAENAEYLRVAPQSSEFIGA

inhibition [1] | IC50 [2] | IC50 [4] | IC50 [5] | IC50 [6] | IC50 [7] | IC50 [8] | IC50 [10] | IC50 [11] | IC50 [14] | IC50 ([2]; sf9) | SMILES | Activity [3] | Activity [9] | viability at 96 h [12] | Activity [13] | Activity [15]
Active | 4.6 µM | 2.3 µM | 1.2 µM | 1.3 µM | 1.4 µM | 1.7 µM | 2 µM | 1.5 µM | 1.1 µM | – | COc1cc(/C=C2\CCc3c(O)cccc3\C2=N\O)c(Br)c(OC)c1OC | inactive | inactive | 90% | Active | Non-Toxic
Active | 1.9 µM | 0.02 µM | 0.02 µM | 0.04 µM | 0.09 µM | 1 µM | 0.02 µM | 0.02 µM | 0.03 µM | – | COc1cc(/C=C2\CCc3ccc([N+](=O)[O-])cc3\C2=N\O)c(Br)c(OC)c1OC | inactive | inactive | 96% | Active | Non-Toxic
Active | 4.2 µM | 0.7 µM | 0.6 µM | 0.6 µM | 0.5 µM | 1.8 µM | 0.4 µM | 0.7 µM | 0.6 µM | – | COc1ccc(OC)c2c1CCC(=C\c1cc(OC)c(OC)c(OC)c1Br)/C2=N\O | inactive | inactive | 89% | Active | Non-Toxic
Active | – | 0.4 µM | 0.7 µM | 0.4 µM | 0.4 µM | 2.7 µM | 0.3 µM | 0.2 µM | 0.4 µM | 0.5 µM | COc1cc(/C=C2\CC(C)C/C(=C\c3cc(OC)c(OC)c(OC)c3Br)C2=NO)c(Br)c(OC)c1OC (stereo not given) | inactive | inactive | 98% | inactive | Non-Toxic
Active | 8.4 µM | 2.2 µM | 2.9 µM | 2.6 µM | 2.2 µM | 6.3 µM | 1.9 µM | 2.1 µM | 2.2 µM | – | COc1cc2c(cc1OC)C(=N/O)/C(=C/c1cc(OC)c(OC)c(OC)c1Br)CC2 | inactive | inactive | 92% | Active | Non-Toxic

Continued, compound first:

SMILES | inhibition [1] | IC50 [2] | IC50 [4] | IC50 [5] | IC50 [6] | IC50 [7] | IC50 [8] | IC50 [10] | IC50 [11] | IC50 [14] | IC50 ([2]; sf9) | Activity [3] | Activity [9] | viability at 96 h [12] | Activity [13] | Activity [15]
COc1cc(/C=C2\CN(C)C/C(=C\c3cc(OC)c(OC)c(OC)c3Br)C2=NO)c(Br)c(OC)c1OC | inactive | 0.07 µM | 0.09 µM | 0.07 µM | 0.08 µM | 0.06 µM | 1.6 µM | 0.06 µM | 0.09 µM | 0.07 µM | – | inactive | inactive | 96% | inactive | Non-Toxic
COc1ccc2c(c1)CCC(=C\c1cc(OC)c(OC)c(OC)c1Br)/C2=N\O | Active | 2.1 µM | 1.4 µM | 1.2 µM | 1.1 µM | 0.8 µM | 1.9 µM | 1.2 µM | 1 µM | 1.7 µM | – | inactive | inactive | 92% | Active | Non-Toxic
COc1cc(/C=C2\CC(C)c3ccccc3\C2=N\O)c(Br)c(OC)c1OC (stereo not given) | Active | 3.2 µM | 1.9 µM | 2.6 µM | 1.9 µM | 2.5 µM | 2.4 µM | 2.2 µM | 2 µM | 2.1 µM | – | inactive | inactive | 98% | Active | Non-Toxic
COc1ccc(/C=C2\CCc3ccc([N+](=O)[O-])cc3\C2=N\O)c(Cl)c1OC | Active | 2 µM | 0.02 µM | 0.09 µM | 0.08 µM | 0.07 µM | 0.9 µM | 0.08 µM | 0.09 µM | 0.09 µM | – | inactive | inactive | 93% | Active | Non-Toxic
CCN(CC)CCON=C1/C(=C/c2cc(OC)c(OC)c(OC)c2Br)CN(C)C/C1=C\c1cc(OC)c(OC)c(OC)c1Br | inactive | 0.1 µM | 0.08 µM | 0.08 µM | 0.07 µM | 0.09 µM | 3.2 µM | 0.07 µM | 0.09 µM | 0.09 µM | – | inactive | inactive | 95% | inactive | Non-Toxic
